Test results published in patent US5407950A, “Arylalkanoylamine derivative and drug containing the same” (priority 1990, dated 1995).
Where two headings read alike, the source gives them in different places.

Assays:
[1] = target: T1, prolyl endopeptidase from canine brain (Canis lupus familiaris, UniProt A0A8I3N6C8); assay: Inhibitory activity against prolyl endopeptidase from brain (Test Example 1); assay type: biochemical
T1 construct: A prolyl endopeptidase was prepared from canine brains; from tissue; host or cells: canine brain
Experimental: Following buffer solutions A and B were used for the measurement.
Buffer A: 20 mM Tris-HCl buffer (pH 7.0)
Buffer B: Buffer A containing 0.1% gelatin, 1 mM EDTA, 1 mM 2-mercaptoethanol.
Dilution of the prolyl endopeptidase preparation with Buffer B to a concentration of 0.4 units/ml was done, and the resulting solution was defined as enzyme solution. To 940 μl of Buffer A was added 50 μl of the enzyme solution, followed by incubating at 37° C. for 10 minutes, to which was added 10 μl of a solution of a sample compound dissolved in dimethyl sulfoxide, and stirred and mixed together, followed by staying at 37° C. for ten minutes. To the mixture was added 100 μl of carbobenzoxyglycylprolyl p-nitroanilide dissolved in 40% dioxane to a final concentration of 2.5 mM, for reaction at 37° C. for 10 minutes, to which was added 100 μl of 50% acetic acid containing 10% Triton X-100, thereby terminating the reaction.
For controls, dimethyl sulfoxide was added at the same amount (10 μl) instead of the solution of the sample compound; for blind tests, dimethyl sulfoxide and Buffer B were added instead of a sample compound and the enzyme solution, respectively, at the same amounts for effecting the same procedure.

ICR male mice = assay: Anti-hypoxic activity (Test Example 2), survival time under 4% O2 / 96% N2; assay type: in vivo; conditions: 100 mg/kg, intraperitoneal, 30 min before gas; control = 100
Experimental: Groups of ICR male mice (Charles River Co.), age 4 to 5 weeks, each group consisting of 10 mice and each mouse having been fasted for 24 hours, were used for the test. Mice were placed in a transparent desiccator (diameter: 19 cm, height: 30 cm) made of synthetic resin and having 2 valves, one at the upper portion and the other at the lower portion, for replacing the gas therein. […] The time measured was taken as the survival time.
Each tested compound suspended in an solvent was intraperitoneally administered 30 minutes before the start of the mixed gas feeding. A group of mice to which only the solvent was intraperitoneally administered was used as a control.
The anti-hypoxic activity was determined according to the following equation: [formula]

ICR mice = assay: Toxicity test; Parenteral administration (Test Example 4); assay type: in vivo; conditions: 300 mg/kg parenteral, 7 days observation
Experimental: Test Example 4 (Toxicity test; Parenteral administration)
Ten ICR mice (Charles River, Co.), male, aged 4 to 5 weeks, were employed per group. The compounds of Examples 1, 5, 8 and 12 were separately suspended in 10% gum arabic, and then, they were individually administered parenterally at a dose of 300 mg/kg for subsequent observation for 7 days. As a result, no death was counted under the above conditions.

Male ICR mice = assay: Toxicity test; Oral administration (Test Example 5); assay type: in vivo; conditions: 1,000 mg/kg oral, 7 days observation
Experimental: Test Example 5 (Toxicity test; Oral administration)
Five male ICR mice (Charles River, Co.) of age 5 weeks, were employed per group. The compound of Example 22 was suspended in a solvent, which was then administered orally at a dose of 1,000 mg/kg for subsequent observation for 7 days. As a result, no death was counted under the above conditions.

[2] = canine brain enzyme, carbobenzoxyglycylprolyl p-nitroanilide substrate, 37° C., pH 7.0, read-out: Inhibition Potency IC50

T1 sequence (A0A8I3N6C8 1-710): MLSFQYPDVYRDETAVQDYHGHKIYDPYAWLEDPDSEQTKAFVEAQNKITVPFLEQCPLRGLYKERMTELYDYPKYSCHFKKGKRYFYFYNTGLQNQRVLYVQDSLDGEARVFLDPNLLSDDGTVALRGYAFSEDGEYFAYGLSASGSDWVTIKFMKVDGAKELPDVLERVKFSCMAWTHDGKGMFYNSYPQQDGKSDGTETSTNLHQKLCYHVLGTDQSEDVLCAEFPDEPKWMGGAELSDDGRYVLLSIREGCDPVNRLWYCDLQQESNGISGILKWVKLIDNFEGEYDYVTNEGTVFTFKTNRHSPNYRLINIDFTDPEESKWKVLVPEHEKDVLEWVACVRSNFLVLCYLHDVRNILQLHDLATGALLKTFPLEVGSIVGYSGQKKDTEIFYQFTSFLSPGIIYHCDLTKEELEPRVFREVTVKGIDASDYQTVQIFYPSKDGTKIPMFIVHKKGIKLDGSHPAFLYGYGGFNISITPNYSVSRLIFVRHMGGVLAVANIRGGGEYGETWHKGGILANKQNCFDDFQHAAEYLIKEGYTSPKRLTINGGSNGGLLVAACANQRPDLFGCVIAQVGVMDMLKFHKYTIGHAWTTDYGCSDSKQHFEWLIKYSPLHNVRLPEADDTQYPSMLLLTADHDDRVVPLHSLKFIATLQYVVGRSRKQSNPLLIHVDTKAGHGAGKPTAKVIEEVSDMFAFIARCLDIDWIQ

| Structure (SMILES) | Anti-hypoxic Activity (ICR male mice) | death within 7 days (parenteral) (ICR mice) | IC50 [1, 2] | also measured |
| --- | --- | --- | --- | --- |
| COc1ccc(C(=O)N2CCCC2=O)cc1 [Aniracetam, reference compound] | 115% |  |  | IC50 [1]: > 1000 µM |
| O=C([C@@H]1CSCN1C(=O)CC1Cc2ccccc2C1)N1CCC[C@H]1CO [Example 1, 1-[3-(Indan-2-ylacetyl)-L-thioprolyl]-L-prolinol] |  | no death |  |  |
| O=C[C@@H]1CCCN1C(=O)[C@@H]1CSCN1C(=O)CC1Cc2ccccc2C1 [Example 2, 1-[3-(Indan-2-ylacetyl)-L-thioprolyl]-L-prolinal] | 120% |  |  |  |
| O=C([C@@H]1CSCN1C(=O)C[C@H]1CCc2ccccc2C1)N1CSC[C@H]1CO [Example 5, 3-[3-((S)-1,2,3,4-tetrahydronaphthalen 2-ylacetyl)-L-thioprolyl]-L-thioprolinol] | 115% | no death |  |  |
| O=C([C@@H]1CCCN1C(=O)c1cc2ccccc2o1)N1CCC[C@H]1CO [Example 6, 1-[1-(benzofuran-2-ylcarbonyl)-L-prolyl]-L-prolinol] | 128% |  |  |  |
| O=C[C@@H]1CSCN1C(=O)[C@@H]1CCCN1C(=O)CC1Cc2ccccc2C1 [Example 8, 3-[1-(indan-2-ylacetyl)-L-prolyl]-L-thioprolinal] | 120% | no death | 0.0012 µM |  |
| O=C[C@@H]1CCCN1C(=O)[C@@H]1CSCN1C(=O)C[C@H]1CCc2ccccc2C1 [Example 9, 1-[3-((S)-1,2,3,4-tetrahydronaphthalen-2-ylacetyl)-L-thioprolyl]-L-prolinal] | 123% |  |  | death within 7 days (oral) (Male ICR mice): no death |
| O=C[C@@H]1CSCN1C(=O)[C@@H]1CSCN1C(=O)C[C@H]1CCc2ccccc2C1 [Example 10, 3-[3-((S)-1,2,3,4-tetrahydronaphthalen-2-ylacetyl)-L-thioprolyl]-L-thioprolinal] | 129% |  | 0.0014 µM |  |
| O=C[C@@H]1CCCN1C(=O)[C@@H]1CCCN1C(=O)c1cc2ccccc2o1 [Example 11, 1-[1-(benzofuran-2-ylcarbonyl)-L-prolyl]-L-prolinal] |  |  | 0.069 µM |  |
| O=C[C@@H]1CSCN1C(=O)[C@@H]1CCCN1C(=O)c1cc2ccccc2o1 [Example 12, 3-[1-(benzofuran-2-ylcarbonyl)-L-prolyl]-L-thioprolinal] |  | no death |  |  |
| O=C([C@@H]1CSCN1C(=O)C[C@H]1CCc2ccccc2C1)N1CCC[C@H]1C=NO [Example 25, (2S)-1-[3-((S)-1,2,3,4-Tetrahydronaphthalen-2-ylacetyl)-L-thioprolyl]-2-pyrrolidine aldoxime] |  |  | 0.016 µM |  |
